Data published in US20200024278A1, “COMPOSITION COMPRISING ANTIBIOTIC COMPOUND AND AN HETEROCYCLIC COMPOUND AND THEIR USE IN PREVENTING OR TREATING BACTERIAL INFECTIONS” (MUTABILIS, priority 2016, published 2020).

Columns and labels:
Test in all cases: MIC, broth microdilution (CLSI), substance alone or ATB combined with compound at 4 or 8 μg/mL
SAU 29213 = assay type: cell-based, S. aureus; settings: SAU 29213; for MIC ATB alone: antibiotic alone; for MIC ATB combined with Example 7 @8 μgml: with Example 7 at 8 μg/ml; for MIC ATB combined with Example 11 @8 μg/ml: with Example 11 at 8 μg/ml; for MIC ATB combined with Example 13 @8 μg/ml: with Example 13 at 8 μg/ml
Experimental: (§1) Compounds of the present invention were assessed against genotyped bacterial strains alone or in combination with an antibacterial. In the assays, MICs of said compounds or combination of antibiotics with fixed concentrations of said compounds (4 or 8 μg/mL) were determined by the broth microdilution method according to the Clinical Laboratory Standards Institute (CLSI-M7-A7). Briefly, compounds alone according to the invention were prepared in DMSO and spotted (2 μL each) on sterile polystyrene plates (Corning, 3788). Combinations of compounds and antibiotics dilutions were prepared in DMSO and spotted (1 μL each) on sterile polystyrene plates (Corning, 3788). Log phase bacterial suspensions were adjusted to a final density of 5·10^5 CFU/mL in cation-adjusted Mueller-Hinton broth (ca-MHB; Becton-Dickinson and Company) and added to each well (98 μL). Assays including Fosfomycin were supplemented with 25 μg/ml of Glucose-6-phosphate. Microplates were incubated for 16-20 h at 35° C. in ambient air. The MIC of the compounds was defined as the lowest concentration of said compounds that prevented bacterial growth as read by visual inspection. The MIC of ATB at each compound concentration was defined as the lowest concentration of ATB that prevented bacterial growth as read by visual inspection.

ECL P99 = assay type: cell-based, E. cloacae; settings: ECL P99; for MIC ATB combined with Example 7 @8 μgml: with Example 7 at 8 μg/ml; for MIC ATB combined with Example 13 @8 μg/ml: with Example 13 at 8 μg/ml
Experimental: as §1

PAE UFR90 = assay type: cell-based, P. aeruginosa; settings: PAE UFR90; for MIC ATB combined with Example 7 @8 μgml: with Example 7 at 8 μg/ml; for MIC ATB combined with Example 11 @8 μg/ml: with Example 11 at 8 μg/ml; for MIC ATB combined with Example 14 @8 μg/ml: with Example 14 at 8 μg/ml; for MIC ATB combined with Example 16 @4 μg/ml: with Example 16 at 4 μg/ml
Experimental: as §1

PAE 105250 = assay type: cell-based, P. aeruginosa; settings: PAE 105250; for MIC ATB combined with Example 11 @8 μg/ml: with Example 11 at 8 μg/ml; for MIC ATB combined with Example 12 @8 μg/ml: with Example 12 at 8 μg/ml; for MIC ATB combined with Example 14 @8 μg/ml: with Example 14 at 8 μg/ml; for MIC ATB combined with Example 15 @4 μgml: with Example 15 at 4 μg/ml; for MIC ATB combined with Example 16 @4 μg/ml: with Example 16 at 4 μg/ml
Experimental: as §1

PAE UFR48 = assay type: cell-based, P. aeruginosa; settings: PAE UFR48; for MIC ATB combined with Example 7 @8 μgml: with Example 7 at 8 μg/ml; for MIC ATB combined with Example 11 @8 μg/ml: with Example 11 at 8 μg/ml; for MIC ATB combined with Example 12 @8 μg/ml: with Example 12 at 8 μg/ml; for MIC ATB combined with Example 15 @4 μgml: with Example 15 at 4 μg/ml; for MIC ATB combined with Example 16 @4 μg/ml: with Example 16 at 4 μg/ml
Experimental: as §1

ECO UFR39 = assay type: cell-based, E. coli; settings: ECO UFR39; with Example 13 at 8 μg/ml
Experimental: as §1

ECO 190317 = assay type: cell-based, E. coli; settings: ECO 190317; for MIC ATB combined with Example 13 @8 μg/ml: with Example 13 at 8 μg/ml
Experimental: as §1

SPN 49619 = assay type: cell-based, S. pneumoniae; settings: SPN 49619; for MIC ATB combined with Example 7 @8 μgml: with Example 7 at 8 μg/ml; for MIC ATB combined with Example 11 @8 μg/ml: with Example 11 at 8 μg/ml; for MIC ATB combined with Example 13 @8 μg/ml: with Example 13 at 8 μg/ml; for MIC ATB combined with Example 15 @4 μgml: with Example 15 at 4 μg/ml
Experimental: as §1

## CO/N=C(\C(=O)N[C@@H]1C(=O)N2C(C(=O)O)=C(CSc3nc(=O)c(O)nn3C)CS[C@H]12)c1csc(N)n1 [CTR]
SAU 29213
  MIC ATB alone: 8 µg/mL
  MIC ATB combined with Example 7 @8 μgml: 2 µg/mL
  MIC ATB combined with Example 11 @8 μg/ml: <=0.031 μg/mL
  MIC ATB combined with Example 13 @8 μg/ml: 4 µg/mL
SAU 29213; with Example 1 @8 μg/ml
  MIC ATB combined with Example 1 @8 μg/ml: 4 µg/mL
SAU 29213; with Example 1 at 8 μg/ml
  MIC ATB combined with Example 1 @8 μg/ml: 4 µg/mL
ECL P99; with Example 1 @8 μg/ml
  MIC ATB combined with Example 1 @8 μg/ml: <0.031 µg/mL
ECL P99; with Example 1 at 8 μg/ml
  MIC ATB combined with Example 1 @8 μg/ml: <0.031 µg/mL
ECL P99
  MIC ATB combined with Example 7 @8 μgml: 2 µg/mL
  MIC ATB combined with Example 13 @8 μg/ml: 1 µg/mL
PAE UFR90; with Example 1 @8 μg/ml
  MIC ATB combined with Example 1 @8 μg/ml: <0.031 µg/mL
PAE UFR90; with Example 1 at 8 μg/ml
  MIC ATB combined with Example 1 @8 μg/ml: <0.031 µg/mL
PAE UFR90
  MIC ATB combined with Example 7 @8 μgml: >32 µg/mL
  MIC ATB combined with Example 11 @8 μg/ml: 32 µg/mL
  MIC ATB combined with Example 14 @8 μg/ml: >32 µg/mL
  MIC ATB combined with Example 16 @4 μg/ml: >32 µg/mL
PAE UFR90; with Example 12 at 8 μg/ml
  MIC ATB combined with Example 12 @8 μg/ml: >32 µg/mL
PAE 105250; with Example 1 @8 μg/ml
  MIC ATB combined with Example 1 @8 μg/ml: <0.031 µg/mL
PAE 105250; with Example 1 at 8 μg/ml
  MIC ATB combined with Example 1 @8 μg/ml: <0.031 µg/mL
PAE 105250
  MIC ATB combined with Example 11 @8 μg/ml: 32 µg/mL
  MIC ATB combined with Example 12 @8 μg/ml: >32 µg/mL
  MIC ATB combined with Example 14 @8 μg/ml: >32 µg/mL
  MIC ATB combined with Example 15 @4 μgml: 32 µg/mL
  MIC ATB combined with Example 16 @4 μg/ml: >32 µg/mL
PAE UFR48; with Example 1 @8 μg/ml
  MIC ATB combined with Example 1 @8 μg/ml: <0.031 µg/mL
PAE UFR48; with Example 1 at 8 μg/ml
  MIC ATB combined with Example 1 @8 μg/ml: <0.031 µg/mL
PAE UFR48
  MIC ATB combined with Example 7 @8 μgml: >32 µg/mL
  MIC ATB combined with Example 11 @8 μg/ml: >32 µg/mL
  MIC ATB combined with Example 12 @8 μg/ml: >32 µg/mL
  MIC ATB combined with Example 15 @4 μgml: >32 µg/mL
  MIC ATB combined with Example 16 @4 μg/ml: >32 µg/mL
ECO UFR39
  MIC ATB combined with Example 13 @8 μg/ml: <0.031 µg/mL
ECO 190317; with Example 1 @8 μg/ml
  MIC ATB combined with Example 1 @8 μg/ml: <0.031 µg/mL
ECO 190317; with Example 1 at 8 μg/ml
  MIC ATB combined with Example 1 @8 μg/ml: <0.031 µg/mL
ECO 190317
  MIC ATB combined with Example 13 @8 μg/ml: <0.031 µg/mL
SPN 49619
  MIC ATB combined with Example 7 @8 μgml: 0.063 µg/mL
  MIC ATB combined with Example 11 @8 μg/ml: <=0.031 μg/mL
  MIC ATB combined with Example 13 @8 μg/ml: <=0.031 μg/mL
  MIC ATB combined with Example 15 @4 μgml: <=0.031 μg/mL
SPN 49619; with Example 9 @4 μg/ml
  MIC ATB combined with Example 9 @4 μg/ml: <=0.031 μg/mL
SPN 49619; with Example 9 at 4 μg/ml
  MIC ATB combined with Example 9 @4 μg/ml: <=0.031 μg/mL

## CO/N=C(\C(=O)N[C@@H]1C(=O)N2C(C(=O)O)=C(COC(C)=O)CS[C@H]12)c1csc(N)n1 [CTX]
SAU 29213
  MIC ATB alone: 2 µg/mL
  MIC ATB combined with Example 7 @8 μgml: 1 µg/mL
  MIC ATB combined with Example 11 @8 μg/ml: <=0.031 μg/mL
  MIC ATB combined with Example 13 @8 μg/ml: 1 µg/mL
SAU 29213; with Example 1 @8 μg/ml
  MIC ATB combined with Example 1 @8 μg/ml: 2 µg/mL
SAU 29213; with Example 1 at 8 μg/ml
  MIC ATB combined with Example 1 @8 μg/ml: 2 µg/mL
SAU 29213; with Example 15 at 4 μg/ml
  MIC ATB combined with Example 15 @4 μgml: 0.5 µg/mL
ECL P99; with Example 1 @8 μg/ml
  MIC ATB combined with Example 1 @8 μg/ml: <0.031 µg/mL
ECL P99; with Example 1 at 8 μg/ml
  MIC ATB combined with Example 1 @8 μg/ml: <0.031 µg/mL
ECL P99
  MIC ATB combined with Example 7 @8 μgml: 0.063 µg/mL
  MIC ATB combined with Example 13 @8 μg/ml: 1 µg/mL
ECL P99; with Example 15 at 4 μg/ml
  MIC ATB combined with Example 15 @4 μgml: <=0.031 μg/mL
PAE UFR90; with Example 1 @8 μg/ml
  MIC ATB combined with Example 1 @8 μg/ml: <0.031 µg/mL
PAE UFR90; with Example 1 at 8 μg/ml
  MIC ATB combined with Example 1 @8 μg/ml: <0.031 µg/mL
PAE UFR90
  MIC ATB combined with Example 7 @8 μgml: >32 µg/mL
  MIC ATB combined with Example 11 @8 μg/ml: >32 µg/mL
  MIC ATB combined with Example 14 @8 μg/ml: >32 µg/mL
  MIC ATB combined with Example 16 @4 μg/ml: >32 µg/mL
PAE UFR90; with Example 15 at 4 μg/ml
  MIC ATB combined with Example 15 @4 μgml: >32 µg/mL
PAE 105250; with Example 1 @8 μg/ml
  MIC ATB combined with Example 1 @8 μg/ml: <0.031 µg/mL
PAE 105250; with Example 1 at 8 μg/ml
  MIC ATB combined with Example 1 @8 μg/ml: <0.031 µg/mL
PAE 105250; with Example 7 at 8 μg/ml
  MIC ATB combined with Example 7 @8 μgml: 32 µg/mL
PAE 105250
  MIC ATB combined with Example 11 @8 μg/ml: 32 µg/mL
  MIC ATB combined with Example 12 @8 μg/ml: >32 µg/mL
  MIC ATB combined with Example 14 @8 μg/ml: >32 µg/mL
  MIC ATB combined with Example 15 @4 μgml: 32 µg/mL
  MIC ATB combined with Example 16 @4 μg/ml: >32 µg/mL
PAE UFR48; with Example 1 @8 μg/ml
  MIC ATB combined with Example 1 @8 μg/ml: <0.031 µg/mL
PAE UFR48; with Example 1 at 8 μg/ml
  MIC ATB combined with Example 1 @8 μg/ml: <0.031 µg/mL
PAE UFR48
  MIC ATB combined with Example 7 @8 μgml: >32 µg/mL
  MIC ATB combined with Example 11 @8 μg/ml: >32 µg/mL
  MIC ATB combined with Example 12 @8 μg/ml: >32 µg/mL
  MIC ATB combined with Example 15 @4 μgml: >32 µg/mL
  MIC ATB combined with Example 16 @4 μg/ml: >32 µg/mL
PAE UFR48; with Example 14 at 8 μg/ml
  MIC ATB combined with Example 14 @8 μg/ml: >32 µg/mL
ECO UFR39
  MIC ATB combined with Example 13 @8 μg/ml: <0.031 µg/mL
ECO 190317; with Example 1 @8 μg/ml
  MIC ATB combined with Example 1 @8 μg/ml: <0.031 µg/mL
ECO 190317; with Example 1 at 8 μg/ml
  MIC ATB combined with Example 1 @8 μg/ml: <0.031 µg/mL
ECO 190317
  MIC ATB combined with Example 13 @8 μg/ml: <0.031 µg/mL
SPN 49619; antibiotic alone
  MIC ATB alone: 0.063 µg/mL
SPN 49619; with Example 1 @8 μg/ml
  MIC ATB combined with Example 1 @8 μg/ml: <=0.031 μg/mL
SPN 49619; with Example 1 at 8 μg/ml
  MIC ATB combined with Example 1 @8 μg/ml: <=0.031 μg/mL
SPN 49619
  MIC ATB combined with Example 7 @8 μgml: <=0.031 μg/mL
  MIC ATB combined with Example 11 @8 μg/ml: <=0.031 μg/mL
  MIC ATB combined with Example 13 @8 μg/ml: <=0.031 μg/mL
  MIC ATB combined with Example 15 @4 μgml: <=0.031 μg/mL
SPN 49619; with Example 9 @4 μg/ml
  MIC ATB combined with Example 9 @4 μg/ml: <=0.031 μg/mL
SPN 49619; with Example 9 at 4 μg/ml
  MIC ATB combined with Example 9 @4 μg/ml: <=0.031 μg/mL
SPN 49619; with Example 12 at 8 μg/ml
  MIC ATB combined with Example 12 @8 μg/ml: <=0.031 μg/mL
SPN 49619; with Example 14 at 8 μg/ml
  MIC ATB combined with Example 14 @8 μg/ml: <=0.031 μg/mL
SPN 49619; with Example 16 at 4 μg/ml
  MIC ATB combined with Example 16 @4 μg/ml: <=0.031 μg/mL
